Here are results for one compound from patent US7714014B2, “Targeting GLI proteins in human cancer by small molecules” (The Regents of the University of California, priority 2005, dated 2010).

Data set [1] concerns human glioma cell line U87. Description: Cell survival assay (crystal violet). In kind it is cell-based. Particulars: U87, 50 μM. The procedure: Typically, the small molecule compounds of the present invention were dissolved in DMSO at a concentration of 30 mM. The small molecule compounds were then tested under cell culture conditions at different concentrations ranging from 0, 10, 30, 50, to 100 uM. To determine cell survival after treatment, the cells were incubated with the small molecule compounds in 6-well plates for about 3 days. After removal of the cell culture medium, 1-ml of 0.5% crystal violet solution (prepared in 20% ethanol and 20% methanol) was added to stain the cells for 5 min. Then the crystal violet solution was rinsed clean with tap water. Cell survival was estimated based on the density of crystal stained plates.
The cell-based cytotoxicity assay described herein was used to determine the effect of small molecule compounds FN1-5 and FN1-8 in the human glioma cell line U87. Viability of U87 cells was analyzed after treatment with 30 and 50 μM FN1-5 and 10, 30, and 50 μM FN1-8.

The nature of data set [2]: Body weight of mice after in vivo treatment. The following applies: three weeks after tumor inoculation and treatment. Also on record: species or system mouse. The procedure: As one preliminary in vivo toxicity study of FN1-8, it was examined if there was loss of body weight in the mice after the FN1-8 treatment. Three weeks after the initial tumor inoculation and the treatment as described in the previous examples, body weights of DMSO control group (n=11) and FN1-8 treated group (n=8) were measured using a scale.

Data set [3] deals with GLI1-induced transcription in melanoma cell lines Malme-3M, A375, SK-Mel-2, SK-Mel-5. The data set is described as follows: 6xGLI BS-luciferase reporter assay. The format is cell-based, human. The following applies: 20 μM, 16-20 hours. The procedure: One day before transfection, cells (1×10^5) were plated in 12-well plates with growth medium without antibiotics. When cells reached 80-90% of confluence they were co-transfected using 0.5 μg of each promoter construct in pGL3Basic vector and 0.025 μg pRL-TK Vector (Promega; Madison, Wis.) containing Renilla Luciferase as an internal control for the transformation efficiency. Lipofectamine 2000™ (Invitrogen Life Technologies) was used to mediate transfection for about 6 hours. […] Briefly, cells were lysed in a lysis buffer and Firefly and Renilla Luciferase activities in cells of each well, were measured using Dual-Luciferase Assay System (Promega) and an illuminometer. The measured luciferase activities were normalized to pRL-TK Vector activity and were given relative to the basal activity of empty pGL3-Basic Vector, which was set to unity. The data shown represent mean values (±S.D.). All measurements were performed in triplicate and repeated in at least three independent experiments. The human Wnt-2 promoter-luciferase construct, the human SOCS3 promoter-Luciferase construct and the human Gremlin promoter-luciferase construct were cloned and characterized in the laboratory of Dr. Jablons at the University of California, San Francisco (San Francisco, Calif.; He et al., Biochem Biophy Res Comm, 2003; and unpublished data). […]

For data set [4], the system named is NSCLC H460 tumor. Description: Mouse Xenograft Model (NSCLC H460). The format is in vivo. The procedure: The small molecule compound FN1-8 was tested in vivo in the mouse xenograft model bearing human cancer cells. Briefly, female athymic nude mice strain NCRNU-M (5-10 weeks old, 20-25 grams in weight; Taconic, Germantown, N.Y.) was maintained in pathogen-free conditions. Three human cancer cell lines: NSCLC H460, melanoma LOX, (both showing Gli3 activation), and colon cancer HT29 (no Gli3 activation, as a negative control), were used. Ten mice were used in each group and injected s.c. with 3×10^6 cancer cells in the dorsal area in a volume of 100 μl. After inoculation, human cancer cells were allowed to grow in mice for 7 days to become visible tumor nodules. Animals were then injected with small molecule compound FN1-8 at a dose of 50 mg/kg body weight (1 mg/mouse per day). DMSO alone was used as control. The compounds and controls were adjusted in 40 ul volume for i.p. injection in the abdomens of the mice. One mouse was sacrificed within 1 hour after the compound injection (after 6 injections) and its blood was collected. Then mass spectrometry was used to analyze the compound level in the blood sample to confirm the compound absorption into the blood stream of the mice. […] Tumor size was measured every three days, and tumor volumes were calculated using width (x) and length (y) (x^2y/2, where x<y). […]
In vivo efficacy study of small molecule compound FN1-8 were performed using a Mouse Xenograft Model (NSCLC H460). […] Tumor size (length and width according to their shapes) was measured with a caliper every three days. Tumor volumes were calculated using the equation […].
Three weeks after the initial tumor inoculation and the treatment as described above, tumors were dissected from the mice of each group and their weights were measured using a scale.
The in vivo efficacy study of small molecule compounds FN1-5 and FN1-8 in the Mouse Xenograft Model (NSCLC H460) was repeated using lower doses of the compounds. […] 24 days after the initial tumor inoculation, tumors were dissected from the mice of each group and their weights were measured using a scale. […]

“Also recorded” adds a separate entry of the source.

For the compound `O=C(NCCc1ccc(O)cc1)C1C(c2ccccc2)=NN(c2ccccc2)C1c1ccccc1` (stereo not drawn) [FN1-8, N-(2-(4-Hydroxyphenyl)ethyl)-1,3,5-triphenyl-4,5-dihydro-pyrazole-4-carboxyamide], the cell killing entry in data set [1] was “dramatic cell killing”. Besides, the “loss of body weight” value in data set [2] was “No noticeable loss of the body weight”. Also, the “6xGLI BS-luciferase activity (GLI1-induced)” value in data set [3] is “significantly reduced level of luciferase activity; also recorded: down-regulates GLI1-induced transcription activity”. Moreover, the tumor growth result in data set [4] (50 mg/kg i.p. daily for 2×6 days) is “significantly suppressed”. Moreover, the tumor weight entry in data set [4] (50 mg/kg i.p. daily for 2×6 days, three weeks after inoculation) is “dramatically decreased”; in data set [4] (low dose 15 mg/kg i.p. daily for 2×6 days, 24 days after inoculation), “decreased”.
